Source: US20260109731A1, “NE[…] USE THEREOF” (HUNAN MINGRUI PHARMACEUTICAL CO., LTD., priority 2023, published 2026)
Several values for one entry are separate records, joined by “and”; a condition that tells them apart may be missing. Equal values may be shown once.

Legend:
[1] = In vitro phase I metabolic stability in male SD rat hepatic microsomes; type: in vitro ADME; settings: male SD rat hepatic microsomes
Procedure: Phase I metabolic stability kit (purchased from HUIZHI HEYUAN BIOTECHNOLOGY (BEIJING) CO., LTD), with the following components of the product:
Positive substrate testosterone solution (10 mM): diluted with acetonitrile to prepare a 200 μM solution for later use; stop solution & internal standard (testosterone-D3): dissolved with acetonitrile to prepare a 5 ng/mL solution for later use.
• 1) all components of the kit were thawed in an ice bath and placed on ice for later use; • 2) an incubation system (taking 200 μL system as an example) was prepared:
• 3) 160 μL of pre-incubation solution B was added into the centrifuge tube containing 40 μL of pre-incubation solution A, uniform mixing was performed by pipetting three times, and the resulting mixture was immediately placed in a water bath at 37° C. for incubation and timing was started; • 4) at predetermined incubation time points (0, 5, 10, 15, 30, 45, 60 minutes), the incubation solution was quantitatively taken out, and 200 μL of stop solution (5 ng/mL testosterone-D3 in acetonitrile, pre-chilled at 4° C.) was added to terminate the reaction (stop solution volume: incubation system volume=1:1). Experimental samples were prepared in triplicate at each time point.
To verify the validity of the experiment, a positive control group was established concurrently in the whole experiment to evaluate whether the incubation system functioned properly, with the preparation method as follows: the compound to be tested was replaced with the positive substrate testosterone (200 μM in acetonitrile) from the phase I metabolic stability kit, and the other components of the incubation system and experimental method were the same as those of the experimental group.
The ratio of the chromatographic peak area of the compound to be tested to the chromatographic peak area of the testosterone-D3 (internal standard) was used as the calculated data. By taking the peak area ratio at time zero of the test compound as 100%, the remaining percentages were calculated by comparing the peak area ratio at each time point with the peak area ratio at time zero, and the natural logarithms of the remaining percentages of the substrate at each time point are then subjected to linear regression against the incubation times to obtain the slope k. Therefore, the in vitro metabolic half-life (T1/2) and intrinsic clearance (CLint) were calculated using the following formulas: […]

[2] = Pharmacokinetic analysis of tail vein administration in female rats
Procedure: (§1) • Female SD rats (body weight: 200 g to 220 g) were purchased from BEIJING HFK BIOSCIENCE CO., LTD.
60 female SD rats were divided into two groups (Aintravenous and Bintravenous), with 30 rats per group (5 rats per blood collection time point). The drugs Aintravenous and Bintravenous were administered via tail vein injection at 3 mg/kg each (about 1.2 mL of drug solution). Blood was collected from the orbital venous plexus at time points (5 min, 30 min, 1 h, 2 h, 4 h, and 8 h) after administration, respectively, anticoagulated with heparin, and centrifuged, and then the plasma was separated and stored at −80° C. for later testing. At 8 h after blood collection, the animals were sacrificed, and the brain and liver tissues were taken and stored at −80° C. for later testing.
(§2) 100 μL of plasma sample, 10 μL of internal standard solution (100 ng/mL testosterone D-3 solution), and 310 μL of acetonitrile were accurately measured, uniformly mixed by vortexing, and centrifuged (14000 rpm, 4° C.), and a resulting supernatant was taken and detected using UPLC-MS/MS (the analysis method was the same as that in pharmacokinetic analysis in mice).
(§3) About 100 mg of brain or liver tissue sample was taken, and accurately weighed. 100 μL of water and 400 μL acetonitrile were accurately added thereto, and a resulting mixture was subjected to homogenization. 100 μL of brain or liver tissue homogenate, 10 μL of internal standard solution (100 ng/mL testosterone D-3 solution), and 310 μL of acetonitrile were accurately measured, uniformly mixed by vortexing, and centrifuged (14000 rpm, 4° C.), and a resulting supernatant was taken and detected using UPLC-MS/MS (the analysis method was the same as that in pharmacokinetic analysis in mice).

[3] = Pharmacokinetic analysis of oral gavage administration in female rats
Procedure: as §1
60 female SD rats were divided into two groups (Aoral and Boral), with 30 rats per group (5 rats per blood collection time point). The drugs Aoral and Boral were administered via oral gavage administration at 12 mg/kg each (about 1.6 mL of drug solution). Blood was collected from the orbital venous plexus at each time point (5 min, 30 min, 1 h, 2 h, 4 h, and 8 h) after administration, respectively, anticoagulated with heparin, and centrifuged, and then the plasma was separated and stored at −80° C. for later testing. At 8 h after blood collection, the animals were sacrificed, and the brain and Liver tissues were taken and stored at −80° C. for later testing.
as §2, §3

[4] = Pharmacokinetic analysis of oral administration to male rats; type: in vivo; settings: oral gavage 12 mg/kg; for Blood drug concentration: individual rats 1-7
Text: Male SD rats (body weight: 230 g to 250 g) were purchased from BEIJING HFK BIOSCIENCE CO., LTD.

[5] = female, SD, rat, plasma, iv, 3 mg/kg

CC(=O)[C@H]1CC[C@H]2[C@@H]3CC[C@H]4C[C@H](O[N+](=O)[O-])CC[C@]4(C)[C@H]3CC[C@]12C [Compound 1]
half-life ([1]; liver microsomes, NADPH system, 37° C., read-out: T1/2 (in vitro metabolic half-life)): 1.56 h
microsomal CLint ([1]; liver microsomes, read-out: intrinsic clearance): 14.8 µL/min/mg
In vitro CLint ([1]; 37° C.): 14.82 μL/min/mg protein
k (slope of ln remaining percentage against incubation time) ([1]; 37° C.): −0.0074
level of allopregnanolone in the liver after administration of compound 1 ([2]; female SD rats, intravenous compound 1, 3 mg/kg, 8 h): undetectable
concentration at 8 h ([2]; female, SD, rat, brain, intravenous, 3 mg/kg): 209 ng/g
Kp at 8 h ([2]; female, SD, rat, brain/plasma, intravenous, 3 mg/kg): 6.68
concentration at 8 h ([2]; female, SD, rat, liver, iv, 3 mg/kg): 193 ng/g
clearance [2, 5]: 87.8 mL/min/kg
half-life [2, 5]: 0.96 h
Oral bioavailability ([3]; female SD rats, oral gavage 12 mg/kg vs tail vein 3 mg/kg): >65%
clearance ([3]; female SD rats, oral gavage, 12 mg/kg, sesame oil solution): 9.67 mL/min/kg
concentration at 8 h ([3]; female, SD, rat, brain, po, 12 mg/kg): 1640 ng/g
Kp at 8 h ([3]; female, SD, rat, brain/plasma, po, 12 mg/kg): 2.95
concentration at 8 h ([3]; female, SD, rat, liver, po, 12 mg/kg): 3700 ng/g
bioavailability ([3]; female, SD, rat, plasma, oral, 12 mg/kg): > 65%
Tmax ([3]; female, SD, rat, plasma, po, 12 mg/kg): > 8 h
Blood drug concentration ([4]; male SD rats, 0.5 h, 12 mg/kg): 4.1 ng/mL and 5.7 ng/mL and 16.2 ng/mL and 8.7 ng/mL and 8.3 ng/mL and 8.1 ng/mL and 8.4 ng/mL
Blood drug concentration ([4]; male SD rats, 1 h, 12 mg/kg): 14.1 ng/mL and 18.9 ng/mL and 35.9 ng/mL and 31.5 ng/mL and 22.3 ng/mL and 23.8 ng/mL and 50.6 ng/mL
Blood drug concentration ([4]; male SD rats, 2 h, 12 mg/kg): 38.2 ng/mL and 85.8 ng/mL and 132.2 ng/mL and 88.8 ng/mL and 111.4 ng/mL and 123 ng/mL and 251.1 ng/mL
Blood drug concentration ([4]; male SD rats, 3 h, 12 mg/kg): 71.9 ng/mL and 121.8 ng/mL and 288.6 ng/mL and 243.6 ng/mL and 103.9 ng/mL and 130.9 ng/mL and 616.7 ng/mL
Blood drug concentration ([4]; male SD rats, 4 h, 12 mg/kg): 95.1 ng/mL and 147 ng/mL and 279.6 ng/mL and 252.2 ng/mL and 270.9 ng/mL and 343.8 ng/mL and 318.5 ng/mL
Blood drug concentration ([4]; male SD rats, 5 h, 12 mg/kg): 250.4 ng/mL and 142.4 ng/mL and 252.4 ng/mL and 284.1 ng/mL and 262.5 ng/mL and 410.7 ng/mL and 582.4 ng/mL
Blood drug concentration ([4]; male SD rats, 6 h, 12 mg/kg): 259.8 ng/mL and 263.9 ng/mL and 161.2 ng/mL and 260.7 ng/mL and 287.5 ng/mL and 409.8 ng/mL and 687.1 ng/mL
Blood drug concentration ([4]; male SD rats, 8 h, 12 mg/kg): 121.7 ng/mL and 276.1 ng/mL and 383.6 ng/mL and 523.1 ng/mL and 496.4 ng/mL and 78.9 ng/mL and 556.5 ng/mL
Blood drug concentration ([4]; male SD rats, 10 h, 12 mg/kg): 167.3 ng/mL and 1144.3 ng/mL and 424.6 ng/mL and 914.9 ng/mL and 382.7 ng/mL and 196.1 ng/mL and 396.3 ng/mL
Blood drug concentration ([4]; male SD rats, 12 h, 12 mg/kg): 513.5 ng/mL and 873.9 ng/mL and 343.7 ng/mL and 730.7 ng/mL and 234.9 ng/mL and 303.8 ng/mL and 285.4 ng/mL
Blood drug concentration ([4]; male SD rats, 18 h, 12 mg/kg): 68.5 ng/mL and 110.5 ng/mL and 196.7 ng/mL and 97 ng/mL and 83.3 ng/mL and 73.4 ng/mL and 134.5 ng/mL
Blood drug concentration ([4]; male SD rats, 24 h, 12 mg/kg): 13.7 ng/mL and 68.5 ng/mL and 61.6 ng/mL and 20.7 ng/mL and 27.6 ng/mL and 13.8 ng/mL and 133.4 ng/mL
Tmax ([4]; male SD rats, 12 mg/kg): 9.7 h
concentration at 0.5 h ([4]; male, SD, rat, plasma, po, 12 mg/kg, 0.5 h, mean of 7 rats, read-out: Blood drug concentration, Mean value): 8.5 ng/mL
concentration at 1 h ([4]; male, SD, rat, plasma, po, 12 mg/kg, 1 h, mean of 7 rats, read-out: Blood drug concentration, Mean value): 28.2 ng/mL
concentration at 2 h ([4]; male, SD, rat, plasma, po, 12 mg/kg, 2 h, mean of 7 rats, read-out: Blood drug concentration, Mean value): 119 ng/mL
concentration at 3 h ([4]; male, SD, rat, plasma, po, 12 mg/kg, 3 h, mean of 7 rats, read-out: Blood drug concentration, Mean value): 225 ng/mL
concentration at 4 h ([4]; male, SD, rat, plasma, po, 12 mg/kg, 4 h, mean of 7 rats, read-out: Blood drug concentration, Mean value): 244 ng/mL
concentration at 5 h ([4]; male, SD, rat, plasma, po, 12 mg/kg, 5 h, mean of 7 rats, read-out: Blood drug concentration, Mean value): 312 ng/mL
concentration at 6 h ([4]; male, SD, rat, plasma, po, 12 mg/kg, 6 h, mean of 7 rats, read-out: Blood drug concentration, Mean value): 333 ng/mL
concentration at 8 h ([4]; male, SD, rat, plasma, po, 12 mg/kg, 8 h, mean of 7 rats, read-out: Blood drug concentration, Mean value): 348 ng/mL
concentration at 10 h ([4]; male, SD, rat, plasma, po, 12 mg/kg, 10 h, mean of 7 rats, read-out: Blood drug concentration, Mean value): 518 ng/mL
concentration at 12 h ([4]; male, SD, rat, plasma, po, 12 mg/kg, 12 h, mean of 7 rats, read-out: Blood drug concentration, Mean value): 469 ng/mL
concentration at 18 h ([4]; male, SD, rat, plasma, po, 12 mg/kg, 18 h, mean of 7 rats, read-out: Blood drug concentration, Mean value): 109 ng/mL
concentration at 24 h ([4]; male, SD, rat, plasma, po, 12 mg/kg, 24 h, mean of 7 rats, read-out: Blood drug concentration, Mean value): 48.5 ng/mL
Tmax ([4]; male, SD, rat, plasma, po, 12 mg/kg, read-out: Tmax): ~10 h
AUC(0-inf) ([4]; rat, plasma, male SD rats): 6220 ng·h/mL
AUC(0-t) ([4]; rat, plasma, male SD rats): 5830 ng·h/mL
Cmax ([4]; rat, plasma, male SD rats): 649 ng/mL
half-life ([4]; rat, plasma, male SD rats): 4.5 h
